Experimental findings from US8084452B2, “Substituted enaminocarbonyl compounds used as insecticides” (Bayer Cropscience AG, priority 2006, dated 2011) are described below.

Common to all, as to format: in vivo
The subject of assay [1] is adult fleas (Ctenocephalides felis). Nature of the assay: Ctenocephalides felis; oral (CTECFE). The conditions noted are these: 100 ppm in citrated cattle blood. The protocol:
Ctenocephalides felis; Oral (CTECFE)
To produce a suitable preparation of active compound, 1 part by weight of active compound is mixed with the stated amount of solvent. Part of the concentrate is diluted with citrated cattle blood, and the desired concentration is prepared.
20 unfed adult fleas (Ctenocephalides felis) are placed into a chamber whose top and bottom ends are closed with gauze. A metal cylinder whose bottom end is closed with parafilm is placed onto the chamber. The cylinder contains the blood/active compound preparation, which can be taken up by the fleas through the parafilm membrane. The blood is warmed to 37° C., but the flea chamber is at room temperature.
After the desired period of time, the kill in % is determined 100% means that all fleas have been killed; 0% means that none of the fleas have been killed.

The test system of assay [2] is green peach aphid (Myzus persicae). Nature of the assay: Myzus test (MYZUPE spray treatment). The conditions noted are these: 500 g/ha, spray on Chinese cabbage leaf discs. The method, then: Myzus Test (MYZUPE Spray Treatment)
(§1) To produce a suitable preparation of active compound, 1 part by weight of active compound is mixed with the stated amounts of solvent and emulsifier, and the concentrate is diluted with emulsifier-containing water to the desired concentration.
Discs of Chinese cabbage leaves (Brassica pekinensis) which are infested by all stages of the green peach aphid (Myzus persicae) are sprayed with a preparation of active compound of the desired concentration.
After the desired period of time, the effect in % is determined 100% means that all aphids have been killed; 0% means that none of the aphids have been killed.

The test system of assay [3] is whitefly (Bemisia tabaci). Nature of the assay: Bemisia tabaci (BEMITA spray treatment). The conditions noted are these: 500 g/ha, spray on cotton leaf discs infested by larvae. The protocol: Bemisia tabaci (BEMITA Spray Treatment)
as §1
Discs of cotton leaves (Gossypium hirsutum) which are infested by larvae of the whitefly (Bemisia tabaci) are sprayed with a preparation of active compound of the desired concentration.
After the desired period of time, the effect in % is determined 100% means that all whiteflies have been killed; 0% means that none of the whiteflies have been killed.

Assay [4] relates to Lucilia cuprina larvae. The experiment in a line: Lucilia cuprina test (LUCICU). The conditions noted are these: 100 ppm, treated horse meat. The protocol: Lucilia cuprina Test (LUCICU)
To produce a suitable preparation of active compound, 1 part by weight of active compound is mixed with the stated amounts of solvent, and the concentrate is diluted with water to the desired concentration.
Containers containing horse meat treated with the preparation of active compound of the desired concentration are populated with Lucilia cuprina larvae.
After the desired period of time, the kill in % is determined 100% means that all larvae have been killed; 0% means that none of the larvae have been killed.

The test system of assay [5] is Boophilus microplus. Nature of the assay: Boophilus microplus test (BOOPMI injection). To be noted: 20 μg/animal injected into abdomen, 100% means no tick has laid fertile eggs. The method, then: Boophilus microplus Test (BOOPMI Injection)
To produce a suitable preparation of active compound, 1 part by weight of active compound is mixed with the stated amount of solvent, and the concentrate is diluted with solvent to the desired concentration.
The solution of active compound is injected into the abdomen (Boophilus microplus), and the animals are transferred into dishes and kept in a temperature-controlled room.
After the desired period of time, the effect in % is determined. 100% means that no tick has laid any fertile eggs.

Assay [6] concerns cotton aphid (Aphis gossypii). The experiment in a line: Aphis gossypii test (APHIGO), leaf dip. To be noted: 100 ppm, cotton leaves dipped. The protocol: Aphis gossypii Test (APHIGO)
as §1
Cotton leaves (Gossypium hirsutum) which are heavily infested by the cotton aphid (Aphis gossypii) are treated by being dipped into the preparation of active compound of the desired concentration.
(§2) After the desired period of time, the kill in % is determined 100% means that all aphids have been killed; 0% means that none of the aphids have been killed.

Assay [7] relates to cotton aphid (Aphis gossypii). The experiment in a line: Aphis gossypii test (APHIGO G), watering. To be noted: 4 ppm, cotton plants watered. The protocol:
Aphis gossypii Test; (APHIGO G)
(§3) To produce a suitable preparation of active compound, 1 part by weight of active compound is mixed with the stated amounts of solvent and emulsifier, and the concentrate is diluted with water to the desired concentration.
Cotton plants (Gossypium hirsutum) which are heavily infested by the cotton aphid (Aphis gossypii) are watered with a preparation of active compound of the desired concentration.
(§4) After the desired period of time, the kill in % is determined. 100% means that all aphids have been killed; 0% means that none of the aphids have been killed.

Assay [8] concerns Meloidogyne incognita. The experiment in a line: Meloidogyne test (MELGIN spray treatment). The conditions noted are these: 20 ppm, nematicidal activity by formation of galls on lettuce roots. The method, then:
Meloidogyne Test (MELGIN Spray Treatment)
as §3
Containers are filled with sand, active compound solution, Meloidogyne incognita egg/larvae suspension and lettuce seeds. The lettuce seeds germinate and the plants develop. On the roots, galls are formed.
After the desired period of time, the nematicidal activity is determined by the formation of galls in %. 100% means that no galls were found; 0% means that the number of galls on the treated plants corresponds to that of the untreated controls.

Assay [9] has as its system brown planthopper (Nilaparvata lugens). Nature of the assay: Nilaparvata lugens test (NILALU hydroponic treatment). To be noted: 100 g/ha (so in the source), active compound pipetted into water. The method, then:
Nilanarvata lugens Test (NILALU Hydrononic Treatment)
as §1
The preparation of active compound is pipetted into water. […] The water is then infected with the brown planthopper (Nilaparvata lugens).
After the desired period of time, the effect in % is determined. 100% means that all planthoppers have been killed; 0% means that none of the planthoppers have been killed.

Assay [10] relates to green peach aphid (Myzus persicae). The experiment in a line: Myzus persicae test (MYZUPE G), watering. To be noted: 4 ppm, cabbage plants watered. The protocol: Myzus persicae Test; (MYZUPE G)
as §3
Cabbage plants (Brassica oleracea) which are heavily infested by the green peach aphid (Myzus persicae) are watered with a preparation of active compound of the desired concentration.
as §2

The test system is the same in assay [11]. The experiment in a line: Myzus persicae test, hydroponic treatment (MYZUPE sys.). To be noted: 20 ppm in water, pea plant. The method, then:
Myzus persicae Test, Hydroponic Treatment (MYZUPE Sys.)
as §3
The preparation of active compound is mixed with water. The stated concentration refers to the amount of active compound per volume unit of water (mg/l=ppm). The treated water is filled into containers housing a pea plant (Pisum sativum) which is then infected with the green peach aphid (Myzus persicae).
as §4

The structures appear in SMILES notation.

Take `O=C1C=C(N(Cc2cnc(Cl)c(F)c2)CC(F)F)CO1` [Example 1, 4-[[(6-Chloro-5-fluoropyridin-3-yl)methyl](2,2-difluoroethyl)amino]furan-2(5H)-one]: the “Kill rate in % after 2 days” value in assay [1] stood at 80%; in [4], 100%. Moreover, the “Kill rate in % after 5 days” value in [2] amounted to 100%. The “Kill rate in % after 7 days” value in [3] is recorded as 100%.
As for `O=C1C=C(N(CCF)Cc2cnc(Cl)c(Cl)c2)CO1` [Example 2, 4-[[(5,6-Dichloropyridin-3-yl)methyl](2-fluoroethyl)amino]furan-2(5H)-one], the “Kill rate in % after 5 days” value in assay [2] was found to be 100%. Moreover, the “Kill rate in % after 7 days” value is listed as 100% in [5] and 80% in assay [9]. Moreover, the “Kill rate in % after 6 days” value in assay [6] was determined as 95%; in assay [11], 100%. The “Kill rate in % after 10 days” value was determined as 100% in assay [7] and 98% in [10]. For the same molecule, the “Kill rate in % after 14 days” value in [8] is 100%.
